Reference: patent publication US5451600A, “Substituted tetrahydrobenzopyrrolylfuranoic acid derivatives as phospholipase A2 inhibitors” (Hoffmann-La Roche Inc., priority 1994, dated 1995)
Like-named read-outs stand apart in the source and are kept apart here.

Tests used:
[1] = test system: carrageenan-induced paw edema in rats; experiment: Carrageenan-induced paw edema model of inflammation; assay type: in vivo; details: rat; for inhibition in vivo at 100 mg/kg: 100 mg/Kg po; for inhibition in vivo at 10 mg/kg: 10 mg/Kg ip
[2] = test system: adjuvant-induced arthritis in male Lewis rats; experiment: Established adjuvant-induced arthritis test; assay type: in vivo, rat; details: day 28 minus day 21, vehicle value in parentheses
Protocol: IV. Adjuvant-induced Arthritis
Male Lewis rats (120-140 g) received 0.1 mg myeobacterium brityricum (0.5% ow/v) heavy mineral oil containing 0.2% digitonin administered in the base of the tail and the resulting arthritis was allowed to develop for 21 days (Coffey and Salvador, 1981). The combinded volumes of both hind paws were measured using a water plethysmograph by immersion of the paws to the level of the lateral malleolus. The animals were divided into drug-treatedand vehicle (control) groups (six rats per group) with approximately equal volumes of both hind paws. On day 21, body weights were recorded and the i.p. or p.o. vehicle and drug were then administered daily for seven days. On day 28, the final day of the experiment, heparinized (0.2 units/100 μl) blood was also collected for measurement of plasma fibrinogen concentrations (Goodwin, 1961). The changes in paw volume and body weight were calculated as paw volume or body weight at day 28 minus paw volume or body weight at day 21. Values are reported as means ± S.E. for n=6. Plasma fibrinogen concentration was quantitated according to Goodwin et al. (1961) and is expressed in mg/dl. Statistical differences between measurement parameters of the drug-treated and control groups were determined using Students's t-test.

cellular PLA2 = experiment: Inhibition of Cellular Phospholipase A2 (A23187-stimulated macrophages); assay type: cell-based; details: rat peritoneal macrophages, A-23187 stimulated
Protocol: II. Inhibition of Cellular Phospholipase A2. - % Inhibition of Cellular PLA2
Resident macrophages were obtained from rats by peritoneal lavage with phosphate buffered saline minus Ca2^++ and Mg2^++ (PBS). Cells were washed 3 times with PBS and resuspended in Dulbecco's Modified Eagle's Medium (GiBco) containing L-glutamine low D-glucose (1000 mg/L), and sodium pyruvate (110 mg/L), supplemented with 10% fetal calf serum. Cells were counted on a Coulter ZBI cell counter and then resuspended to a concentration of 6×10^6 cells/1.5 ml. The cell suspension (1.5 ml culture dishes (35 mm) and the cells were allowed to adhere to the dishes for 90 minutes at 37° C. Dishes were washed 3 times with PBS to remove non-adherent cells. [^14 C]arachidonic acid ([^14 C]-AA, approximately […], were added to the cells (1 uCi/dish) and allowed to incorporate for 120 minutes. Medium containing unincorporated [^14 C]-AA was removed and the cell layer was again washed 3 times with PBS. Inhibitors were dissolved in dimethylsulfoxide (DMSO) and added directly to the macrophages in Hank's Balanced Salt Solution (GiBco) phosphate-buffered, pH 7.4) to obtain the desired final concentration. Cells were incubated with drug or DMSO for 30 minutes at 37° C. and were then stimulated with calcium-ionophore A-23187 (0.75 uM) for 20 minutes. The extracellular medium was removed and the [^14 C] radioactivity released into this medium from AA metabolism was measured by liquid scintillation spectroscopy. The amounts of LTB4 and PGE2 were measured in the extracellular medium by radio immunoassay with specific antisera. The effects of inhibitor were measured as percent inhibition of A23187- stimulated AA metabolite release (^14 C release, PGE2 and LTB4 production) (control) which were calculated from the formula: [formula] IC50 's were calculated as described in the HSF-PLA2 assay.

[3] = target: T1, PLA2 activity in human synovial fluid (HSF) (Homo sapiens, UniProt P14555); experiment: Phospholipase A2 (PLA2) enzymatic assay - % Inhibition of HSF-PLA2; assay type: biochemical; details: for IC50: human synovial fluid PLA2, 30 min at 37° C., pH 7.3; for inhibition at 5 µM: read-out: % Inhib. of HSF-PLA2 at 5 μM
T1 construct: Synovial fluid was obtained from patients with rheumatoid arthritis; from tissue; host or cells: cell-depleted synovial fluid of patients with rheumatoid arthritis
T1 sequence (P14555 21-144): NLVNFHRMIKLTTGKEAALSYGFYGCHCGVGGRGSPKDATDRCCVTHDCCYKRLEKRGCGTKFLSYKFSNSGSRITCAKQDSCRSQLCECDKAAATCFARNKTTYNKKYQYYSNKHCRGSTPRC
From the text: 1, Phospholipase A2 (PLA2) enzymatic assay - % Inhibition of HSF-PLA2
PLA2 assay procedure described by Hope et al., Inflammation 14:543-559 (1.990) was utilized to measure the inhibitory activity of the invention (inhibitor) against PLA2 activity in human synovial fluid (HSF). Synovial fluid was obtained from patients with rheumatoid arthritis. The assay procedure measured the release of [1-^14 C]oleic acid from the sn-2 position of phospholipids in autoclaved Escherichia coli previously grown in media containing [1-^14 C]oleic acid. The standard assay reaction conditions included 1×10^9 Escherichia coil (10,000 dpm ^14 C), 0.15% (v/v) cell-depleted HSF, (which was equivalent to 66 μg protein/mL) 2 mM CaCl2, 150 mM NaCl, 50 mM sodium (N-[2-hydroxyethyl] piperazine-N'-[2-ethanesulfonate]) (HEPES) buffer (pH 7.3), 1% dimethyl sulfoxide (DMSO) and various concentrations of inhibitor in a total volume of 0.5 ml. Inhibitors were dissolved in DMSO and added. The reaction was initiated by addition of HSF, incubated for 30 min at 37° C. and then stopped by addition of 2.5 ml of chloroform/methanol (1:1.5, v/v). The total lipids were extracted by the method of Bligh, E. G., and Dyer, W. J, Can. J. Biochem. Physiol. 37:911-917 (1959) by the further addition of 0.5 mL of chloroform and 1 mL of water with mixing. The lipid extract was redissolved in chloroform/methanol (9:1, v/v) containing 10 ug of carrier oleic acid. The oleic acid was separated from phospholipids by thin layer chromatography using gel-impregnated glass fiber sheets (ITLC type SG sheets). The sheets were preactivated by heating at 110° C. for 30 min. The lipid extract was applied to the sheets and chromatographed for 6 minutes, using hexane/acetic acid (100:1, v/v). The positions on the sheet containing oleic acid and phospholipids were visualized by exposure to iodine vapor and located by comparison to standards. The oleic acid and phospholipid zones were cut from the sheets, shaken individually with 2 ml of ethanol/water (80:20, v/v) and 15 ml of Aquasol, then counted for [^14 C] radioactivity (dpm). PLA2 activity, expressed as percent hydrolysis, was calculated from the formula: [formula] and was corrected for nonenzymatic hydrolysis of the substrate. Percent inhibition due to the presence of drug was calculated from the formula: [formula]
When various concentrations of a Compound of Formula I were tested, the percent inhibition at each concentration was plotted as log concentration (abscissa) versus percent inhibition (ordinate) and the IC50 was determined from this plot.

[4] = 2 hr, read-out: Carrageenan ind. paw edema % Inhib. 2 hr
[5] = 30 mg/Kg ip, 2 hr, read-out: Carrageenan ind. paw edema % Inhib. 2 hr
[6] = 20 mg/Kg ip, 2 hr, read-out: Carrageenan ind. paw edema % Inhib. 2 hr

| Compound | inhibition at 5 µM [3] | inhibition in vivo at 100 mg/kg [1, 4] | % Inhib. of cellular PLA2 at 5 μM (cellular PLA2) | inhibition in vivo at 30 mg/kg [1, 5] | also measured |
| --- | --- | --- | --- | --- | --- |
| CCCCCCCCn1c2c(c3cc(/C=C\c4ccc(C(=O)O)o4)ccc31)CCCC2 [Example 51, (Z)-5-[2-(1,2,3,4-tetrahydro-9-octyl-9H-dibenzo[b,d]pyrrol-6-yl)ethenyl]-2-furancarboxylic acid] | 67% | 72% | 85% |  | inhibition in vivo at 1 mg/kg ([1]; 1 mg/Kg ip, 2 hr, read-out: Carrageenan ind. paw edema % Inhib. 2 hr): 70%; Change of body wt. (vehicle) ([2]; 10 mg/Kg po daily seven days): 6 g; Change of paw volume (vehicle) ([2]; 10 mg/Kg po daily seven days): 0.71 mL; IC50 (cellular PLA2): 2 µM; IC50 [3]: 4 µM |
| CCCCCCCCn1c2c(c3cc(/C(C)=C/c4ccc(C(=O)O)o4)ccc31)CCCC2(C)C [Example 48, (E)-5-[2-methyl-2-(1,2,3,4-tetrahydro-1,1-dimethyl-9-octyl-9H-dibenzo[b,d]-pyrrol-6yl)ethenyl]-2-furancarboxylic acid] | 75% |  | 62% |  | inhibition in vivo at 10 mg/kg [1, 4]: 58% |
| CCCCCCCCCn1c2c(c3cc(Oc4ccc(C(=O)O)o4)ccc31)CCCC2 [Example 142, 5-[(1,2,3,4-tetrahydro-9-nonyl-9H-dibenzo[b,d]pyrrol-6-yl)oxy]-2-furancarboxylic acid] | 83% |  | 90% |  | inhibition in vivo at 30 mg/kg ([1]; 30 mg/Kg po, 2 hr, read-out: Carrageenan ind. paw edema % Inhib. 2 hr): 48% |
| CCCCCCCCn1c2c(c3cc(Oc4ccc(C(=O)O)o4)ccc31)CCCC2(C)C [Example 134, 5-[(1,2,3,4-tetrahydro-1,1-dimethyl-9-octyl-9H-dibenzo[b,d]pyrrol-6-yl)oxy]-2-furancarboxylic acid] | 86% | 48% | 94% |  | inhibition in vivo at 20 mg/kg [1, 6]: 36% |
| CCCCCCCCn1c2c(c3cc(/C=C(\C)c4ccc(C(=O)O)o4)ccc31)CCCC2(C)C [Example 53, (E)-5-[1-methyl-2-(1,2,3,4-tetrahydro-1,1-dimethyl-9-octyl-9H-dibenzo[b,d]pyrrol-6-yl)ethenyl]-2-furancarboxylic acid] | 73% | 55% | 63% |  | inhibition in vivo at 10 mg/kg [1, 4]: 68% |
| CC(C)CCCC(C)CCn1c2c(c3cc(Oc4ccc(C(=O)O)o4)ccc31)CCCC2 (racemic) [Example 144, rac-5-[[1,2,3,4-tetrahydro-9-(3,7-dimethyloctyl)-9H-dibenzo[b,d]pyrrol-6-yl]oxy]-2-furancarboxylic acid] | 78% |  | 87% | 80% |  |
| CCCCCCCCn1c2c(c3cc(/C=C(\C)c4ccc(C(=O)O)o4)ccc31)CCCC2 [Example 50, (E)-5-[1-methyl-2-(1,2,3,4-tetrahydro-9-octyl-9H-dibenzo[b,d]-pyrrol-6-yl)ethenyl]-2-furancarboxylic acid] | 47% |  | 79% |  | inhibition in vivo at 20 mg/kg [1, 6]: 56% |
| (E)-5-[2-(1,2,3,4-tetrahydro-3,3dimethyl-9-octyl-9 H-dibenzo[b,d]-pyrrol-6yl)ethenyl]-2-furancarboxylic acid [Example 45] |  |  | 53% |  | Carrageenan ind. paw edema % Inhib. 2 hr ([1]; 20 mg/Kg ip): 46%; % Inhib. of HSF-PLA2 at 5 μM ([3]; 5 μM): 86% |

Now from value to compound, other results behind:

| inhibition at 5 µM [3] | Compound | inhibition in vivo at 100 mg/kg [1, 4] | % Inhib. of cellular PLA2 at 5 μM (cellular PLA2) | inhibition in vivo at 30 mg/kg [1, 5] | also measured |
| --- | --- | --- | --- | --- | --- |
| 81% | CCCCCCCCC1CCCc2c1n(CCCCCCCC)c1ccc(Oc3ccc(C(=O)O)o3)cc21 (racemic) [Example 154, rac-5-[(1,2,3,4-tetrahydro-1,9-dioctyl-9H-dibenzo[b,d]pyrrol-6-yl)oxy]-2-furancarboxylic acid] | 49% | 78% | 45% | Change of body wt. (vehicle) ([2]; 30 mg/Kg po daily seven days): 10 g |
| 47% | O=C(O)c1ccc(Oc2ccc3c(c2)c2c(n3CCCCc3ccccc3)CCCC2)o1 [Example 145, 5-[[1,2,3,4-tetrahydro-9-(4-phenylbutyl)-9H-dibenzo[b,d]pyrrol-6-yl]oxy]-2-furancarboxylic acid] |  | 99% | 43% | IC50 [3]: 4.8 µM |
| 37% | O=C(O)c1ccc(Oc2ccc3c(c2)c2c(n3Cc3ccc(F)cc3)CCCC2)o1 [Example 146, 5-[[9-[(4-fluorophenyl)methyl]-1,2,3,4-tetrahydro-9H-dibenzo[b,d]pyrrol-6-yl]oxy]-2-furancarboxylic acid] | 33% | 98% | 51% |  |
| 37% | O=C(O)c1ccc(Oc2ccc3c(c2)c2c(n3Cc3cccc(F)c3)CCCC2)o1 [Example 147, 5-[[9-[(3-fluorophenyl)methyl]-1,2,3,4-tetrahydro-9H-dibenzo[b,d]pyrrol-6-yl]oxy]-2-furancarboxylic acid] |  | 94% | 49% |  |
| 40% | CCCCCCCCn1c2c(c3cc(C(=O)c4ccc(C(=O)O)o4)ccc31)CCCC2 [Example 157, 5-[(1,2,3,4-tetrahydro-9-octyl-9H-dibenzo[b,d]pyrrol-6-yl)carbonyl]-2-furancarboxylic acid] | 44% | 68% |  | inhibition in vivo at 20 mg/kg [1, 6]: 41% |
